Source: the OligoGym collection
Where “and” joins values, the source holds several entries; their conditions need not be identical. Identical values can stand only once. After the bases stand the sugars from the 5' end (letter, count) and the backbone: PS all phosphorothioate, else s phosphorothioate and o phosphodiester by linkage. Methylation of C is not given here. e = 2'-O-(2-methoxyethyl) (MOE); k = constrained ethyl (cEt); d = 2'-deoxy (DNA)

Target: IRF4
Details: ASO

Sequence	target mRNA inhibition (SK-MEL-28, 4 µM) [%]	target mRNA inhibition (MM.1R, 1 µM)	other results
GAGCATCCGCTTGGAG (sugars k3 d10 k3, PS)	31		
GTCGAACCTCTGGTTC (sugars k3 d10 k3, PS)	-10		
AACAGAGACGCGGTGA (sugars k3 d10 k3, PS)	10		
ATGTGGAGCTCCTCCT (sugars k3 d10 k3, PS)	20		
GTTACTAATTCCATAG (sugars k3 d10 k3, PS)	49		
CCCACGAAGGGCAGTG (sugars k3 d10 k3, PS)	35		
GTATACCAACGACAGC (sugars k3 d10 k3, PS)	78		
TGTATTACTCTTAGGC (sugars k3 d10 k3, PS)		65% and 41%	target mRNA inhibition (MM.1R, 0.0625 µM): 7%; target mRNA inhibition (MM.1R, 0.25 µM): 21%; target mRNA inhibition (MM.1R, 4 µM): 68%
GGTTGGCTGGTCTTTG (sugars kdddddddddkekeke, PS)		26%	
GAAATAGCATCAGAGC (sugars k3 d10 k3, PS)	45		
TCACTACCTGCAGCCA (sugars k3 d10 k3, PS)		6%	
AGAGGAATGAGCACTC (sugars k3 d10 k3, PS)		5%	
GATTCATTTCCTTCAC (sugars k3 d10 k3, PS)	49		
AGCTAACTGGCCTCAA (sugars k3 d10 k3, PS)	23		
TATATAGAATTAGGTG (sugars k3 d10 k3, PS)	-16		
CCAAAGCATAGAGTCA (sugars k3 d10 k3, PS)	58		
AAGGAGGCGGGCCTTG (sugars k3 d10 k3, PS)	2		
ACTCACTGGTTCTGAA (sugars k3 d10 k3, PS)	14		
CAGTGATGTCAGGTTT (sugars kdddddddddkekeke, PS)		48%	
ATGCGAAGAATTTTAG (sugars k3 d10 k3, PS)	21		
TTCCAGCTTAGTCACC (sugars k3 d10 k3, PS)	37		
ACACATCACTTGGTCA (sugars k3 d10 k3, PS)	78		
AAGCATTTTATCATCC (sugars kkdddddddddekeke, PS)		25%	
TGTTAGGTGACCCAAA (sugars k3 d10 k3, PS)		2%	

Sequence	target mRNA inhibition (SK-MEL-28, 4 µM) [%]	target mRNA inhibition (MM.1R, 1 µM)	other results
AAGCTAAACTCCTAAG (sugars k3 d10 k3, PS)	15		
CACTACCATATTGGAA (sugars k3 d10 k3, PS)	22		
GTGATAGCTGAGCTGA (sugars k3 d10 k3, PS)		70% and 75%	target mRNA inhibition (H929, 0.04 µM): 51% and 42%; target mRNA inhibition (KMS11, 0.2 µM): 77% and 89%; target mRNA inhibition (MM.1R, 0.0625 µM): 13% and 17%; target mRNA inhibition (MM.1R, 0.25 µM): 38% and 47%; target mRNA inhibition (MM.1R, 4 µM): 89% and 88%
TGAGGCATACAGTGTG (sugars k3 d10 k3, PS)		18%	
CATGGGAGATCCGGCA (sugars k3 d10 k3, PS)	41		
AGCTACGCAATCTTCT (sugars k3 d10 k3, PS)	47		
GAAATGTGTTGGAAGA (sugars k3 d10 k3, PS)	68		
TTGGTTGGCTGGTCTT (sugars kkdddddddddkekek, PS)		65%	
GGCCAACGACTCCACA (sugars k3 d10 k3, PS)	23		
ATCCCTTATTAGACTG (sugars k3 d10 k3, PS)		-7%	
TGGAATCTTGGCAGGG (sugars k3 d10 k3, PS)	40		
ATGTGATAGCTGAGCT (sugars kkdddddddddekeke, PS)		2%	
TGGCAACCATTTTCAC (sugars k4 d8 k4, PS)	7		
GTACACCTCTTCACTA (sugars k3 d10 k3, PS)	7		
AGCCTTCCTGCTCAGA (sugars k3 d10 k3, PS)	55		
GAACAAAAGGTTCCCG (sugars k3 d10 k3, PS)	18		
CTGGATTGCTGATGTG (sugars k3 d10 k3, PS)		56% and 36%	target mRNA inhibition (MM.1R, 4 µM): 83% and 71%
CCGTATCCCCGTATCA (sugars k3 d10 k3, PS)	35		
GAGCCAGAGCAGTAAA (sugars k3 d10 k3, PS)		-2%	
TCAGCAAGTGTCTTCC (sugars k3 d10 k3, PS)	66		
AGAACGCACGGACGAA (sugars k3 d10 k3, PS)		1%	
CCCATATACATTGAGG (sugars k3 d10 k3, PS)		16%	
CGCGAAGGCTCCTACC (sugars k3 d10 k3, PS)	-41		
AGGCAGTTGTGCCGTC (sugars k3 d10 k3, PS)	-62		

Sequence	target mRNA inhibition (SK-MEL-28, 4 µM) [%]	target mRNA inhibition (MM.1R, 1 µM)	other results
CAGTTGTAAATGAGTC (sugars k2 d9 e3 k2, PS)		62%	target mRNA inhibition (H929, 0.00067 µM): 26%; target mRNA inhibition (H929, 0.002 µM): 46%; target mRNA inhibition (H929, 0.00667 µM): 64%; target mRNA inhibition (H929, 0.02 µM): 72%; target mRNA inhibition (H929, 0.04 µM): 50%; target mRNA inhibition (KMS11, 0.2 µM): 83% and 91%; target mRNA inhibition (MM.1R, 0.074 µM): 10%; target mRNA inhibition (MM.1R, 0.222 µM): 28%; target mRNA inhibition (MM.1R, 0.666 µM): 52%; target mRNA inhibition (MM.1R, 2 µM): 77%
ACATATCCATGTTGCA (sugars k3 d10 k3, PS)	79		
GCCAAGACCAGCTCTT (sugars k3 d10 k3, PS)	30		
TGTGCTTGCCAAGCCT (sugars k2 d9 e3 k2, PS)		45% and 40%	
TCGCATAGAGCCCGTC (sugars k3 d10 k3, PS)	57		
ATCTAAGGCAAGCTGA (sugars k3 d10 k3, PS)	37		
GATGTGATAGCTGAGC (sugars kkdddddddddkdkdk, PS)		34%	
TAGTATGAGAAACGGC (sugars k3 d10 k3, PS)	78		target mRNA inhibition (H929, 0.04 µM): 33% and 47%; target mRNA inhibition (KMS11, 0.2 µM): 65% and 85%
GACTAACAGGGAGACT (sugars k3 d10 k3, PS)	-9		
AGCAAGGCCTCTGAGC (sugars k3 d10 k3, PS)	55		
CAGTGATGTCAGGTTT (sugars k3 d10 k3, PS)		62%	target mRNA inhibition (MM.1R, 0.074 µM): 22%; target mRNA inhibition (MM.1R, 0.222 µM): 39%; target mRNA inhibition (MM.1R, 0.666 µM): 62%; target mRNA inhibition (MM.1R, 2 µM): 85%
TGGGATTATATACTGG (sugars kkdddddddddkekek, PS)		42%	
ATTATATACTGGTTGG (sugars kkddddddddddkeke, PS)		32%	
GTTGCCGAGATATAAA (sugars k3 d10 k3, PS)		13%	
TGAAGCAACACGGGAA (sugars k3 d10 k3, PS)	60		
GGCTGAGATAGGAAGC (sugars k3 d10 k3, PS)	36		
ATAACACGGTGTTGAC (sugars k3 d10 k3, PS)		21%	
AGCATTTTATCATCCG (sugars kkdddddddddkdkdk, PS)		11%	
GCACAGAACACCTGAT (sugars k3 d10 k3, PS)	56		
ATCGAATCTGCCCAAA (sugars k3 d10 k3, PS)	26		
CTTATTAGACTGACAG (sugars k3 d10 k3, PS)	41		
GTTCATACCCAATAGT (sugars k3 d10 k3, PS)	66		
CGGCACAGGCGCGGAC (sugars k3 d10 k3, PS)	4		
GAGCAAAGCAAGTGTC (sugars k3 d10 k3, PS)	42		

Sequence	target mRNA inhibition (SK-MEL-28, 4 µM) [%]	target mRNA inhibition (MM.1R, 1 µM)	other results
GTAGTATGAGAAACGG (sugars kddddddddddkekek, PS)		46%	
TCTCCGCCTCGGCCGC (sugars k3 d10 k3, PS)	41		
TTATGTTAGCCAATTC (sugars k2 d9 e3 k2, PS)		14% and 9%	
GGTTAAATATTCTTCA (sugars k3 d10 k3, PS)	48		
TACTAACTGGCTTCCA (sugars k3 d10 k3, PS)	28		
CAGTGACTTGCATCCA (sugars kkddddddddddkeke, PS)		33%	
ACAGCATAGCATTATC (sugars k3 d10 k3, PS)	64		
TGCACTCGCGCAAAGG (sugars k3 d10 k3, PS)	28		
TGTACAGGACAGGTAA (sugars k3 d10 k3, PS)		8%	
GGGTAAAGGAGTGCAG (sugars k3 d10 k3, PS)	19		
GAGAAAACCCCCCTCT (sugars k3 d10 k3, PS)	17		
TCATAGCTAGTTCATT (sugars k3 d10 k3, PS)	52		
TCATGTAAAGTCTGCT (sugars k3 d10 k3, PS)		21%	
GGCTAGGCCACCGCAC (sugars k3 d10 k3, PS)	28		
GTGATAGCTGAGCTGA (sugars k2 d9 e3 k2, PS)		13%	
GGATGGAACAGTAACT (sugars k3 d10 k3, PS)	52		
CCTGAGTTACCGCATT (sugars k3 d10 k3, PS)		24%	
CAGGGAGCGGCCGTGG (sugars k3 d10 k3, PS)	17		
AAAGAGGGTCACAGGT (sugars k3 d10 k3, PS)	34		
GGCCTTCCTGGCGGAG (sugars k3 d10 k3, PS)	22		
GGGCATGTAAAACATA (sugars k3 d10 k3, PS)	23		
TTTCTACAAGGTCTGA (sugars k3 d10 k3, PS)		3%	
TGGCTGATAATTAATC (sugars k3 d10 k3, PS)		-5%	
GAAATCACGAGGTTGC (sugars k3 d10 k3, PS)	62	32%	target mRNA inhibition (MM.1R, 0.0625 µM): -6%; target mRNA inhibition (MM.1R, 0.074 µM): -3%; target mRNA inhibition (MM.1R, 0.222 µM): 16%; target mRNA inhibition (MM.1R, 0.25 µM): 9%; target mRNA inhibition (MM.1R, 0.666 µM): 22%; target mRNA inhibition (MM.1R, 2 µM): 52%; target mRNA inhibition (MM.1R, 4 µM): 64%
